Results on ten molecules are retold here after patent US7659284B2, “Thiazolopyridine kinase inhibitors” (Janssen Pharmaceutica NV, priority 2004, dated 2010).

What is called IC50 is the concentration that gives 50% inhibition. Low readings indicate greater potency, high ones weaker potency. One may read the inhibition as the change of the read-out against control, counted positive when it falls.

“And” between values parts separate entries of the source, which are not always exact repeats. Equal values may be shown once.

Assay type in all cases: biochemical
The target in experiment [1] is T1, HER-2 (Homo sapiens, UniProt P04626).
T1 construct: the nucleotides encoding amino acids 679 to 1255 of HER-2; HIS6 with thrombin site (N); purchased Proqinase (Freiburg, Germany)
T1 sequence (P04626 679-1255): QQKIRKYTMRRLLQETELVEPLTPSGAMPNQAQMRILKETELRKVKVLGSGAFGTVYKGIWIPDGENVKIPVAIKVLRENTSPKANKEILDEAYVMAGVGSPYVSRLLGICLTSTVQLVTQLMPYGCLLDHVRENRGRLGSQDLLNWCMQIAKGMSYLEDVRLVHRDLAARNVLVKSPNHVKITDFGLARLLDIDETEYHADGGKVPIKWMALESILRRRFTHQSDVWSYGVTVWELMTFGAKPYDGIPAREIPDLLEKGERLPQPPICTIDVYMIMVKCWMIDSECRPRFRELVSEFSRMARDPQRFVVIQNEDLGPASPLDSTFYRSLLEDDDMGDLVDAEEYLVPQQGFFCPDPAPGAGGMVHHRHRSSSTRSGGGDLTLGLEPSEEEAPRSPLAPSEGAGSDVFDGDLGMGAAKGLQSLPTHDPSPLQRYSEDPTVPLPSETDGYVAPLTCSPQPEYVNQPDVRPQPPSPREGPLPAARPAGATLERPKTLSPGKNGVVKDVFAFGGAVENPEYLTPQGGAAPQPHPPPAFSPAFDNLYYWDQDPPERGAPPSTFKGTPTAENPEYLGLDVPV
As to the kind of experiment: HER-2 Kinase Assay. As to conditions: GST-HER2 kinase, 1 μM ATP. The procedure: The HER-2 kinase used was purified at Proqinase (Freiburg, Germany) from a construct that consisted of a fusion of GST (Glutathione-S-Transferase), HIS6-Thrombin and the nucleotides encoding amino acids 679 to 1255 of HER-2.
A mixture of a 10× kinase reaction buffer (600 mM Hepes at pH 7.5, 30 mM Magnesium Chloride, 0.03 mM Sodium Vanadate and 500 μg/mL PEG 20,000), DTT (1.2 mM final from a 10 mM stock), ATP (1 μM from a 10 mM stock), biotinylated polyGluTyr (1.5 ng/μL final from stock of 1 μg/μL prepared by Upstate Biotechnologies, Lake Placid, N.Y.), Manganese Chloride (3 mM final from a 1 M stock), γy-^33P-ATP (10 μCi/μL stock) and water (70 μL/well) was added to each well of a Streptavidin Flashplate (Cat. # SMP103, NEN, Boston, Mass.).
Test compound stock (1 μL) was added to the appropriate wells. Diluted GSTHER2 kinase (6.7 ng/μL diluted into 50 mM Tris-HCl at pH 8.0 and 0.1% bovine serum albumin) (30 μL) was added (total volume of 200 ng/well) to initiate the reactions.
The reaction plates were incubated at 30° C. for 1 hr. The reaction was terminated by aspirating the reaction mixture from the plate wells and washing the wells three times with a 1×PBS stop buffer (300 μL) and 100 mM EDTA. After the final wash, the same stop buffer (200 μL) was again added to the wells. The plates were then sealed and read on the TopCount scintillation counter.
The IC50 was derived according to the procedure described in Example 52. For those compounds without an IC50, the percent inhibition results are shown at a test concentration of 1 μM.

For experiment [2], the target named is T2, Lyn kinase (human) (Homo sapiens, UniProt P07948).
T2 construct: purchased Upstate Biotechnology, Lake Placid, N.Y
T2 sequence (P07948 whole entry): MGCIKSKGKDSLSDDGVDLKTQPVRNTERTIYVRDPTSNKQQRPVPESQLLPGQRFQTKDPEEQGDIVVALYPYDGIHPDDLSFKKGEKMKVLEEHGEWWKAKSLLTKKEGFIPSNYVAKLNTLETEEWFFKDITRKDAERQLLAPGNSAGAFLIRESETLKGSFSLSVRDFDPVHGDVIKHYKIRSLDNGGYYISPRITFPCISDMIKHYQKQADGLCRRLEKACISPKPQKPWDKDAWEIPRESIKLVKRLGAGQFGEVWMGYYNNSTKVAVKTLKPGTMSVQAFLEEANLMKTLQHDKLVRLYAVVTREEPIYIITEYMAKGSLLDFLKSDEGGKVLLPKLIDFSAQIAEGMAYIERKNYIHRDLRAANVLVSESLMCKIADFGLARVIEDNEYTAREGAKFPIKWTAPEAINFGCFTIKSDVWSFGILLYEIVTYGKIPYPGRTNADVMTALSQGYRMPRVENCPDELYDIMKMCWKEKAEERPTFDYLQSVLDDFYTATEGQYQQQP
Nature of the experiment: Lyn Kinase Assay (h). As for the experimental part:
A mixture of a 10× kinase buffer (500 mM MOPS at pH 7.5, 1 mM EGTA, 1 mM Sodium Vanadate, 1% β-mercaptoethanol and 100 mM Magnesium Acetate), ATP (5 μM final from a 10 mM stock), polyGluTyr (0.1 mg/mL final from a 1 mg/mL stock), γ-^33P ATP (10 μCi/μL stock) and water (20 μL/well) was added to each well of a Streptavidin Flashplate.
Test compound in 100% DMSO (0.5 μL) was added to the appropriate wells. Diluted Lyn kinase (human) (Upstate Biotechnology, Lake Placid, N.Y.) (diluted in a buffer consisting of 50 mM Tris at pH 7.5, 0.1 mM EGTA, Sodium Vanadate (0.1 mM), β-mercaptoethanol (0.1%) and 1 mg/mL bovine serum albumin) (2.5 μL) was added to the wells to initiate the reactions.
The reaction plates were incubated at 30° C. for 40 min. The reaction was terminated by the addition of a 3% phosphoric acid solution (5 μL). The reaction product (10 μL) was spotted onto a P30 filtermat and washed for 5 minutes in phosphoric acid (75 mM). The wash sequence was repeated two more times, followed with one final wash in methanol. The plates were then dried, sealed and read on the TopCount scintillation counter after adding 30 μL scintillation fluid.
The percent inhibitions and IC50 values were derived according to the procedure described in Example 52. For those compounds without an IC50, the percent inhibition results are shown at a test concentration of ^(1) 1 μM or ^(2) 1.6 μM.

Experiment [3] addresses T3, EGFR (Homo sapiens, UniProt P00533).
T3 construct: started at nucleotide 2189 (corresponding to amino acid 667) and ended at the termination codon; made in house; host or cells: Sf9 insect cells (baculovirus)
Nature of the experiment: EGFR Kinase Assay (GST-EGFR, 33P-ATP, Streptavidin Flashplate). The conditions noted are these: for inhibition at 2 µM: test concentration of 2 μM, read-out: EGFR percent inhibition; for IC50: GST-EGFR intracellular portion, 5 μM ATP. An excerpt: The EGFR kinase used was a fusion of Glutathione-S-Transferase (GST) and a PCR amplified intracellular portion of EGFR (NM_005228). The intracellular portion of EGFR started at nucleotide 2189 (corresponding to amino acid 667) and ended at the termination codon. The portion was PCR amplified with primers that added the lambda attB sequences to each end, recombined into an entry vector, then into a GST destination vector (as described in Gateway Technologies Manual by Invitrogen Corporation, Carlsbad, Calif.).
The destination vector was recombined in the DH10BAC strain of bacteria to produce a bacmid. The bacmid was transfected into Sf 9 cells and the supernatant containing the baculovirus was collected. The GSTEGFR protein was purified using large cultures of Sf 9 cells infected with stock virus. After an appropriate period of time, the cells were collected and lysed. The GSTEGFR was then purified from the lysate on Glutathione-Sepharose columns (as described by Amersham Biosciences, Buckinghamshire, United Kingdom).
The EGFR substrate was prepared by biotinylating polyGluTyr (128 mg) (Sigma, St. Louis, Mo.) in a 1×PBS buffer incubated together with a 12-fold molar excess of Sulfo-NHS-LC-Biotin on ice for at least 2 hrs. The free biotin was separated from the biotinylated polyGluTyr on a gel filtration column.
A mixture of a 10× kinase buffer (500 mM Tris at pH 8.0, 100 mM Magnesium Chloride and 1 mM Sodium Vanadate), DTT (1 mM final from 500 mM stock), ATP (5 μM final from 10 mM stock), biotinylated polyGluTyr (10 μg/μL stock), γ-^33P ATP (10 μCi/μL stock) and water was added to each well (90 μL/well) of a Streptavidin Flashplate (Perkin Elmer, Wellesley, Mass.).
Test compound in 100% DMSO (2 μL) was added to the appropriate wells. Diluted GSTEGFR (1:300 dilution in 50 mM Tris at pH 8.0 and 0.1% bovine serum albumin) (10 μL) was added to the wells to initiate the reactions.
The plates were incubated at 30° C. for 1 hr with shaking. The reacted contents were removed and the plates were sequentially washed three times with a 1×PBS stop buffer (300 μL without Magnesium and Calcium) and 100 mM EDTA. After the final wash, the same stop buffer (200 μL) was added to the wells. The plates were then sealed and read on the TopCount scintillation counter.
Test compounds were assayed in triplicate at 16 concentrations at half-log dilutions starting at 200 uM. A maximum and minimum signal for the assay was determined on each plate. The percent inhibition of a test compound was calculated accord to the formula
For a series of test concentrations, the IC50 was derived by graphing percent inhibition against the log of the concentrations tested for a given compound. For those compounds without an IC50, the percent inhibition results are shown at a test concentration of 2 μM.

The target in experiment [4] is T4, c-Src kinase (human) (Homo sapiens, UniProt P12931).
T4 construct: purchased Upstate Biotechnology, Lake Placid, N.Y
T4 sequence (P12931 whole entry): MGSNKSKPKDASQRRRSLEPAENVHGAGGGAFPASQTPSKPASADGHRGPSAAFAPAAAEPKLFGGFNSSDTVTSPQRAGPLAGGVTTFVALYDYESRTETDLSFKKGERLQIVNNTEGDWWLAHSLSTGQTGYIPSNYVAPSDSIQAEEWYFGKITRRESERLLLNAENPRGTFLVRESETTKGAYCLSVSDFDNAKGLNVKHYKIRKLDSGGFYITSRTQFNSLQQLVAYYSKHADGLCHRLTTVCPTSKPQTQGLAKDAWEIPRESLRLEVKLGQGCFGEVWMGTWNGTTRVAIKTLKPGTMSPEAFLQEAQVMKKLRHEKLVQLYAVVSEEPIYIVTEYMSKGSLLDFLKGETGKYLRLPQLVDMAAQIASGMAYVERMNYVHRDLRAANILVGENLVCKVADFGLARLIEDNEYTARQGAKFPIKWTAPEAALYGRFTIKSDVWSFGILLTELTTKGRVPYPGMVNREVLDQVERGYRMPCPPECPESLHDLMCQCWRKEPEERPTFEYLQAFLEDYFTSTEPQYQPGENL
Nature of the experiment: c-Src Kinase Assay. As to conditions: for IC50: human c-Src, 5 μM ATP; for inhibition at 1.6 µM: test concentration (2) 1.6 μM. The procedure: […] a 10× kinase buffer (80 mM MOPS at pH 7.0, 2 mM EDTA and 100 mM Magnesium Chloride), ATP (5 μM final from a 10 mM stock), a Cdc2 peptide KVEKIGEGTYGVVYK (100 μM final from a 2.5 mM stock), γ-^33P ATP (10 μCi/μL stock) and water (20 μL/well) was added to each well of a Streptavidin Flashplate.
Test compound in 100% DMSO (0.5 μL) was added to the appropriate wells. Diluted c-Src kinase (human) (Upstate Biotechnology, Lake Placid, N.Y.) (diluted in a buffer consisting of 20 mM MOPS at pH 7.0, 1 mM EDTA, β-mercaptoethanol (0.1%), Brij-35 (0.01%), glycerol (5%), and 1 mg/mL bovine serum albumin) (2.5 μL) was added to the wells to initiate the reactions. The reaction plates were incubated at 30° C. for 40 min. The reaction was terminated by the addition of a 3% phosphoric acid solution (5 μL). The reaction product (10 μL) was spotted onto a P30 filtermat and washed for 5 minutes in phosphoric acid (75 mM). The wash sequence was repeated two more times, followed with one final wash in methanol. The plates were then dried, sealed and read on the TopCount scintillation counter after adding 30 μL scintillation fluid.
The percent inhibitions and IC50 values were derived according to the procedure described in Example 52. For those compounds without an IC50, the percent inhibition results are shown at a test concentration of ^(1)1 μM or ^(2)1.6 μM.

In experiment [5] the target is LYN (m) (Mus musculus, UniProt P25911). Nature of the experiment: Lyn Kinase Assay (m).
Sequence of LYN (m) (P25911 whole entry): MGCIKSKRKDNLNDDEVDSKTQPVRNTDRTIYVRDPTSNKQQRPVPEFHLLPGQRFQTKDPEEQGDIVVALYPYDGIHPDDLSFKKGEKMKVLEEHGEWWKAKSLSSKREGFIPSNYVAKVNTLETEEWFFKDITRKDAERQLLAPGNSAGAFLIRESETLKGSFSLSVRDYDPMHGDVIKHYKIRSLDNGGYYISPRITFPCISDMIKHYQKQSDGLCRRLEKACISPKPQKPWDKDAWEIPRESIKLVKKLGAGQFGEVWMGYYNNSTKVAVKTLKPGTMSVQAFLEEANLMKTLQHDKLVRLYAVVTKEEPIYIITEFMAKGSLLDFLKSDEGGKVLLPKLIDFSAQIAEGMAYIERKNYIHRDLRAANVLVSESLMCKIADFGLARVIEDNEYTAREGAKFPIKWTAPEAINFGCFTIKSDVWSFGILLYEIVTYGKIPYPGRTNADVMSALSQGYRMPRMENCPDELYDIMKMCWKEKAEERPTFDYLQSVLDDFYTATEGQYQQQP
Setting [6] is: read-out: c-SRC percent inhibition.

T3 sequence (P00533 667-1210 limits assumed): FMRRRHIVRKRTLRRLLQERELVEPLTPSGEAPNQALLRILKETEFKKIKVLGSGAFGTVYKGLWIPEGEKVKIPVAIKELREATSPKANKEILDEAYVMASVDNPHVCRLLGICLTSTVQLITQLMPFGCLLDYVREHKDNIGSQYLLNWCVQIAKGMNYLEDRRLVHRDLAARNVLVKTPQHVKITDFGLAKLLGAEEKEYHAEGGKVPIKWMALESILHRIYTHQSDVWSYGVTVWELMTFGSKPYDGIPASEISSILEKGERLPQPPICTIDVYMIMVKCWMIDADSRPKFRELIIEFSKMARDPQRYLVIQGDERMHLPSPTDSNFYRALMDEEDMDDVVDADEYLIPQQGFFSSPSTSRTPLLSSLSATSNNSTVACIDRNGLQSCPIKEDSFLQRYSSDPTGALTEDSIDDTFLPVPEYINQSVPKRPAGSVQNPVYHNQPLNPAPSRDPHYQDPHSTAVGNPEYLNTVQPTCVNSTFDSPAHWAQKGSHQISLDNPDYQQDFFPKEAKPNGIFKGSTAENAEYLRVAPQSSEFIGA

For `CN1CCN(Cc2ccc(Nc3nc4ncc(C#N)c(Nc5ccc(Oc6ccccc6)cc5)c4s3)cc2)CC1` [Cpd 51, 2-[4-(4-methyl-piperazin-1-ylmethyl)-phenylamino]-7-(4-phenoxy-phenylamino)-thiazolo[4,5-b]pyridine-6-carbonitrile], the half-inhibitory concentration (IC50) in experiment [1] is greater than 100000 nM. Moreover, the inhibition at 1.6 µM in experiment [2] ((h), test concentration (2) 1.6 μM, read-out: LYN percent inhibition (h)) is 37%. The inhibition at 2 µM in experiment [3] came out at 0%. In experiment [4] (test concentration not marked (1 μM or 1.6 μM)), this molecule had a c-SRC percent inhibition of 0%.
As to `N#Cc1cnc2nc(Nc3ccc(CN4CCOCC4)cc3)sc2c1Nc1c(Cl)ccc2c1OCO2` [Cpd 20, 7-(5-chloro-benzo[1,3]dioxol-4-ylamino)-2-(4-morpholin-4-ylmethyl-phenylamino)-thiazolo[4,5-b]pyridine-6-carbonitrile], the half-inhibitory concentration (IC50) in experiment [2] ((h) human Lyn, 5 μM ATP) was 11 nM; in experiment [5], 9 nM; in experiment [3] it was 378 nM and 941 nM; in experiment [4], 11 nM.
`CN1CCCC(COc2ccc(Nc3nc4ncc(C#N)c(Oc5cccc(OC(F)(F)F)c5)c4s3)cc2)C1` (centres unmarked) [Cpd 37, 2-[4-(1-methyl-piperidin-3-ylmethoxy)-phenylamino]-7-(3-trifluoromethoxy-phenoxy)-thiazolo[4,5-b]pyridine-6-carbonitrile] yielded an IC50 in experiment [3] of 7210 nM. Besides, the inhibition at 1.6 µM in experiment [4] (setting [6]) was found to be 3%.
For the molecule `N#Cc1cnc2nc(Nc3ccc(CN4CCCC4)cc3)sc2c1Nc1ccc(F)c(Cl)c1` [Cpd 17, 7-(3-chloro-4-fluoro-phenylamino)-2-(4-pyrrolidin-1-ylmethyl-phenylamino)-thiazolo[4,5-b]pyridine-6-carbonitrile], the IC50 was determined as 46000 nM in experiment [1] and 39.9 nM in experiment [3].
Regarding `CN1CCCC(COc2ccc(Nc3nc4ncc(C#N)c(Nc5c(Cl)ccc6c5OCO6)c4s3)cc2)C1` (centres unmarked) [Cpd 40, 7-(5-chloro-benzo[1,3]dioxol-4-ylamino)-2-[4-(1-methyl-piperidin-3-ylmethoxy)-phenylamino]-thiazolo[4,5-b]pyridine-6-carbonitrile], the inhibition at 2 µM in experiment [3] stood at 46%. Moreover, inhibition in experiment [4] was half-maximal at 2390 nM (IC50).
Regarding `C#Cc1cccc(Nc2c(C#N)cnc3nc(Nc4ccc(S(=O)(=O)NCCCN(C)C)cc4)sc23)c1` [Cpd 23, 4-[6-cyano-7-(3-ethynyl-phenylamino)-thiazolo[4,5-b]pyridin-2-ylamino]-N-(3-dimethylamino-propyl)-benzenesulfonamide], the inhibition at 1 µM in experiment [2] ((h), test concentration (1) 1 μM, read-out: LYN percent inhibition (h)) is 8%; in experiment [5] (test concentration (1) 1 μM, read-out: LYN percent inhibition (m)) it was 42%; in experiment [4] (test concentration (1) 1 μM, read-out: c-SRC percent inhibition), -2%. The half-inhibitory concentration (IC50) in experiment [3] amounted to 20.4 nM.
For the molecule `CN1CCCC(COc2ccc(Nc3nc4ncc(C#N)c(Oc5ccc(Cl)cc5Cl)c4s3)cc2)C1` (centres unmarked) [Cpd 36, 7-(2,4-dichloro-phenoxy)-2-[4-(1-methyl-piperidin-3-ylmethoxy)-phenylamino]-thiazolo[4,5-b]pyridine-6-carbonitrile], the midpoint of inhibition in experiment [3], the IC50, lay at 8760 nM. Also, in experiment [4] (setting [6]), the inhibition at 1.6 µM is 4%.
In the case of `CN1CCCC(COc2ccc(Nc3nc4ncc(C#N)c(Sc5cccc(Br)c5)c4s3)cc2)C1` (centres unmarked) [Cpd 38, 7-(3-bromo-phenylsulfanyl)-2-[4-(1-methyl-piperidin-3-ylmethoxy)-phenylamino]-thiazolo[4,5-b]pyridine-6-carbonitrile], half-maximal inhibition in experiment [3] (IC50) was put at 2200 nM. Further, the inhibition at 1.6 µM in experiment [4] (setting [6]) was 4%.
On to `C#Cc1cccc(Nc2c(C#N)cnc3nc(Nc4ccc(CN(C)C)cc4)sc23)c1` [Cpd 10, 2-(4-dimethylaminomethyl-phenylamino)-7-(3-ethynyl-phenylamino)thiazolo[4,5-b]pyridine-6-carbonitrile], for which the IC50 in experiment [1] came to 10000 nM; in experiment [3], 56.5 nM.
With `COc1cc(Nc2nc3ncc(C#N)c(Nc4c(Cl)ccc5c4OCO5)c3s2)ccc1OCC1CCCCO1` (centres unmarked) [Cpd 43, 7-(5-chloro-benzo[1,3]dioxol-4-ylamino)-2-[3-methoxy-4-(tetrahydro-pyran-2-ylmethoxy)-phenylamino]-thiazolo[4,5-b]pyridine-6-carbonitrile], the inhibition at 2 µM in experiment [3] turned out to be 4%. In experiment [4], this molecule returned an IC50 greater than 100000 nM.
